Counter-ions that a name gives are not always drawn.
Target: (+)-MK801 binding site of the ionotropic NMDA receptor
Parameters: species or system rat

`Clc1ccccc1C1=CCN(C2(c3ccccc3)CCCCC2)CC1` [Example 11, 4-(2-chlorophenyl)-1-(1-phenylcyclohexyl)-1,2,3,6-tetrahydropyridine hydrochloride] was tested, and the Ki was 2.8 µM.

In the case of `Cc1ccccc1C1=CCN(C2(c3ccccc3)CCCCC2)CC1` [Example 7, 4-(2-methylphenyl)-1-(1-phenylcyclohexyl)-1,2,3,6-tetrahydropyridine hydrochloride], the Ki is reported as 5.3 µM.

From patent publication US7034041B2 (priority 2000, dated 2006)
